The conditions of data set [1]: cited from earlier work.
A short description of data set [2]: Individual components administered separately from the other components. It is filed as in vivo, human. The note with it: administered separately from the other components of the invention. From the text:
Thus, the invention is named “Formula of activity”. The invention offers methods of treating patients who refuse food and can die as a result. […] It is possible that this new effect is produced by a new substance that is formed as a result of the interaction of the components of the invention with each other or with other naturally occurring substances in the body. The components may exert their effect by through the reticular formation in the brain, which is the regulating center of different brain functions. The reticular formation coordinates the interactions between all structures of the brain. It analyzes and corrects the functions of the brain structures and ensures their proper hierarchical dependencies, as well as the readiness of the central nervous system to perform its functions.

The nature of data set [3]: Effect of composition on selected patients and disorders (case reports). In kind it is in vivo, human. From the text: The following are several of many patients who were successfully treated by the invention.

Data on seven compounds can be found in US9072691B2, “Nutritional supplement for disinhibiting therapy of psychiatric patients” (priority 2012, dated 2015).

Consider `CCC1(CCC(C)C)C(=O)N=C([O-])NC1=O.[Na+]` (stereo not shown) [Barbamyl], for which, in data set [1], the “Dependency on repeated injections” value is “lead to psychological and physiological dependency on this substance”.

In the case of calcium pantothenate, the “Stimulating or disinhibiting effect / effect on appetite when administered alone” value in data set [2] is recorded as “does not lead to a desired stimulating or disinhibiting effect”.

Turning to `CN1CCN(CCCN2c3ccccc3Sc3ccc(C(F)(F)F)cc32)CC1` [Stelazine], in data set [3] (Patient N, postpartum psychosis, 5 mg once per day first week, then 1 mg two times a day), the Clinical outcome is “improved regarding their condition and delusional ideas; however they remained apathetic, fatigued and indifferent”.

As for `O=S(=O)([O-])[O-].[Mg+2]` [Magnesium sulfate, magnesium sulfate], the “Stimulating or disinhibiting effect / effect on appetite when administered alone” value in data set [2] is reported as “does not lead to a desired stimulating or disinhibiting effect”.

Consider `O=S(=O)([O-])CC(S)CS.[Na+]` (stereo not shown) [Unithiol], for which the “Stimulating or disinhibiting effect / effect on appetite when administered alone” value in data set [2] is listed as “does not lead to a desired stimulating or disinhibiting effect”.

Take `CN1C(=O)CN=C(c2ccccc2)c2cc(Cl)ccc21` [valium]: the Sleep entry in data set [3] (Patient S, closed head trauma, before the course of the invention, injection) was “they would fall asleep only after injection of valium”.

On to `CN(C)CCCN1c2ccccc2Sc2ccc(Cl)cc21` [aminazine], for which the Effect after administration entry in data set [3] (Patient B, paranoid schizophrenia, after disinhibition, 50 mg intravenously) is reported as “the patient fell asleep”.
